Measured values as given in patent US11541132B2, “Radiolabeled compounds” (Hoffmann-La Roche Inc., priority 2017, dated 2023).

Columns and labels:
[1] = target: T1, native Aβ aggregates in human AD brain tissue sections (Homo sapiens, UniProt P05067); experiment: Aβ in vitro displacement assay (selectivity counterscreen, [3H]Example 3 autoradiography); type: binding; details: 1 μM compound; 3 nM [3H]Example 3; human AD brain sections; read-out: sel. counterscreen PCT_INHIB AD @ 1 μM (% displacement of [3H]Example 3)
T1 construct: native Aβ aggregates in human AD brain tissue samples; from tissue; host or cells: human AD brain tissue sections
T1 sequence (P05067 672-713 limits assumed): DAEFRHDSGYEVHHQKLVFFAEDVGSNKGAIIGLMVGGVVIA

[2] = target: T2, native aSyn aggregates in A30P transgenic mouse brain sections (Homo sapiens, UniProt P37840, A30P); experiment: aSyn in vitro displacement assay ([3H]Example-3 autoradiography); type: binding, mutant human aSyn gene); details: 1 μM compound; 3 nM [3H]Example-3; A30P transgenic mouse brain sections; read-out: PCT_INHIB A30P @ 1 μM (% displacement of [3H]Example-3)
T2 construct: from tissue; host or cells: brain sections (midbrain and pons as ROI) of A30P transgenic mice, line B6.D2-Tg(Thy1-SNCA*30P)31Pjk

Row | inhibition at 1 µM [1] [%] | inhibition at 1 µM [2] [%] | SMILES
1 | 94 | 95 | COc1ccc(C(=O)Nc2ccc(N3CCN(c4ccccn4)CC3)cn2)c(F)c1 [Example 44, 2-Fluoro-4-methoxy-N-(5-(4-(pyridin-2-yl)piperazin-1-yl)pyridin-2-yl)benzamide]
2 | 98 | 97 | Cc1ccc(C(=O)Nc2ccc(N3CCN(c4ccccn4)CC3)cn2)cc1 [Example 45, 4-Methyl-N-(5-(4-(pyridin-2-yl)piperazin-1-yl)pyridin-2-yl)benzamide]
3 | 96 | 94 | CN(C)c1ccc(C(=O)Nc2ccc(N3CCN(c4ccccn4)CC3)cn2)cc1 [Example 46, 4-(Dimethylamino)-N-(5-(4-(pyridin-2-yl)piperazin-1-yl)pyridin-2-yl)benzamide]
4 | 94 | 83 | O=C(Nc1ccc(N2CCN(c3ccccn3)CC2)cn1)c1ccccc1F [Example 47, 2-Fluoro-N-(5-(4-(pyridin-2-yl)piperazin-1-yl)pyridin-2-yl)benzamide]
5 | 93 | 97 | O=C(Nc1ccc(N2CCN(c3ccccn3)CC2)nn1)c1ccc(N2CCOCC2)cc1 [Example 48, 4-Morpholino-N-[6-[4-(2-pyridyl)piperazin-1-yl]pyridazin-3-yl]benzamide]
6 | 95 | 92 | COc1ccc(C(=O)Nc2ccc(N3CCN(c4ncccn4)CC3)cc2)cc1 [Example 49, 4-Methoxy-N-{4-[4-(pyrimidin-2-yl)piperazin-1-yl]phenyl}benzamide]
7 | 86 | 97 | COc1ccc(C(=O)Nc2ccc(N3CCN(c4ccc(C#N)cn4)CC3)cc2)cc1 [Example 50, N-(4-(4-(5-Cyanopyridin-2-yl)piperazin-1-yl)phenyl)-4-methoxybenzamide]
8 | 94 | 94 | O=C(Nc1ccc(N2CCN(c3ccccn3)CC2)cn1)c1ccc(N2CCOCC2)cc1 [Example 51, 4-Morpholino-N-(5-(4-(pyridin-2-yl)piperazin-1-yl)pyridin-2-yl)benzamide]
9 | 95 | 92 | Cc1ccc(C(=O)Nc2ccc(N3CCN(c4ccccn4)CC3)cn2)c(F)c1 [Example 52, 2-Fluoro-4-methyl-N-(5-(4-(pyridin-2-yl)piperazin-1-yl)pyridin-2-yl)benzamide]
10 | 86 | 82 | Cc1ccc(C(=O)Nc2ccc(N3CCN(c4ccccn4)CC3)cn2)nc1 [Example 53, 5-Methyl-N-(5-(4-(pyridin-2-yl)piperazin-1-yl)pyridin-2-yl)picolinamide]
11 | 90 | 82 | Cc1cccc(C(=O)Nc2ccc(N3CCN(c4ccccn4)CC3)cn2)c1 [Example 54, 3-Methyl-N-(5-(4-(pyridin-2-yl)piperazin-1-yl)pyridin-2-yl)benzamide]

Continued, molecule first:

Row | SMILES | inhibition at 1 µM [1] [%] | inhibition at 1 µM [2] [%]
12 | COc1ccc(C(=O)Nc2ccc(N3CCN(c4nccs4)CC3)cc2)c(F)c1 [Example 18, 2-Fluoro-4-methoxy-N-[4-[4-(1,3-thiazol-2-yl)piperazin-1-yl]phenyl]benzamide] | 99 | 95
13 | CN(C)c1ccc(C(=O)Nc2ccc(N3CCN(c4nccs4)CC3)cc2)cc1 [Example 20, 4-(Dimethylamino)-N-[4-[4-(1,3-thiazol-2-yl)piperazin-1-yl]phenyl]benzamide] | 103 | 90
14 | Cc1ccc(C(=O)Nc2ccc(N3CCN(c4nccs4)CC3)cc2)c(F)c1 [Example 21, 2-Fluoro-4-methyl-N-[4-[4-(1,3-thiazol-2-yl)piperazin-1-yl]phenyl]benzamide] | 91 | 85
15 | COc1ccc(C(=O)Nc2ccc(N3CCN(c4ccccn4)CC3)cc2C)c(F)c1 [Example 29, 2-Fluoro-4-methoxy-N-(2-methyl-4-(4-(pyridin-2-yl)piperazin-1-yl)phenyl)benzamide] | 83 | 81
16 | Cc1cccc(N2CCN(c3ccc(NC(=O)c4ccc(N(C)C)cc4)cc3)CC2)n1 [Example 30, 4-(Dimethylamino)-N-(4-(4-(6-methylpyridin-2-yl)piperazin-1-yl)phenyl)benzamide] | 96 | 91
17 | CN(C)c1ccc(C(=O)Nc2ccc(N3CCN(c4ccccn4)CC3)nc2)cc1 [Example 31, 4-(Dimethylamino)-N-[6-[4-(2-pyridyl)piperazin-1-yl]-3-pyridyl]benzamide] | 98 | 90
18 | O=C(Nc1ccc(N2CCN(c3ccccn3)CC2)nc1)c1ccc(N2CCOCC2)cc1 [Example 32, 4-Morpholino-N-[6-[4-(2-pyridyl)piperazin-1-yl]-3-pyridyl]benzamide] | 88 | 87
19 | Cc1ccc(C(=O)Nc2ccc(N3CCN(c4ccccn4)CC3)nc2)nc1 [Example 33, 5-Methyl-N-[6-[4-(2-pyridyl)piperazin-1-yl]-3-pyridyl]pyridine-2-carboxamide] | 90 | 85
20 | COc1ccc(C(=O)Nc2ccc(N3CCN(c4ccccn4)CC3)nc2)c(F)c1 [Example 34, 2-Fluoro-4-methoxy-N-[6-[4-(2-pyridyl)piperazin-1-yl]-3-pyridyl]benzamide] | 99 | 84
21 | CN(C)c1ccc(C(=O)Nc2ccc(N3CCN(c4ccccn4)CC3)nn2)cc1 [Example 36, 4-(Dimethylamino)-N-[6-[4-(2-pyridyl)piperazin-1-yl]pyridazin-3-yl]benzamide] | 91 | 86
22 | Cc1ccc(C(=O)Nc2ccc(N3CCN(c4cccnc4)CC3)cc2)cc1 [Example 37, 4-Methyl-N-(4-(4-(pyridin-3-yl)piperazin-1-yl)phenyl)benzamide] | 97 | 94
23 | COc1ccc(C(=O)Nc2ccc(N3CCN(c4cccnc4)CC3)cc2)cc1 [Example 38, 4-Methoxy-N-(4-(4-(pyridin-3-yl)piperazin-1-yl)phenyl)benzamide] | 93 | 96
24 | O=C(Nc1ccc(N2CCN(c3cccnc3)CC2)cc1)c1ccc(N2CCOCC2)cc1 [Example 39, 4-Morpholino-N-(4-(4-(pyridin-3-yl)piperazin-1-yl)phenyl)benzamide] | 69 | 87
25 | COc1ccc(C(=O)Nc2ccc(N3CCN(c4ccccn4)CC3)nn2)c(F)c1 [Example 40, 2-Fluoro-4-methoxy-N-[6-[4-(2-pyridyl)piperazin-1-yl]pyridazin-3-yl]benzamide] | 92 | 86
26 | COc1ccc(C(=O)Nc2ccc(N3CCN(c4ccncc4)CC3)cc2)cc1 [Example 41, 4-Methoxy-N-[4-[4-(4-pyridyl)piperazin-1-yl]phenyl]benzamide] | 90 | 84
27 | CN1CCOc2cc(C(=O)Nc3ccc(N4CCN(c5ccccn5)CC4)cc3)ccc21 [Example 42, 4-Methyl-N-(4-(4-(pyridin-2-yl)piperazin-1-yl)phenyl)-3,4-dihydro-2H-benzo[b][1,4]oxazine-7-carboxamide] | 94 | 91
28 | COc1ccc(C(=O)Nc2ccc(N3CCN(c4ccccn4)CC3)cn2)cc1 [Example 43, 4-Methoxy-N-(5-(4-(pyridin-2-yl)piperazin-1-yl)pyridin-2-yl)benzamide] | 99 | 84
